Test [1] has as its target T1, Adrenergic receptor alpha-2 (Rattus norvegicus, UniProt P22086+P19328+P22909).
T1 sequence (P22086 whole entry): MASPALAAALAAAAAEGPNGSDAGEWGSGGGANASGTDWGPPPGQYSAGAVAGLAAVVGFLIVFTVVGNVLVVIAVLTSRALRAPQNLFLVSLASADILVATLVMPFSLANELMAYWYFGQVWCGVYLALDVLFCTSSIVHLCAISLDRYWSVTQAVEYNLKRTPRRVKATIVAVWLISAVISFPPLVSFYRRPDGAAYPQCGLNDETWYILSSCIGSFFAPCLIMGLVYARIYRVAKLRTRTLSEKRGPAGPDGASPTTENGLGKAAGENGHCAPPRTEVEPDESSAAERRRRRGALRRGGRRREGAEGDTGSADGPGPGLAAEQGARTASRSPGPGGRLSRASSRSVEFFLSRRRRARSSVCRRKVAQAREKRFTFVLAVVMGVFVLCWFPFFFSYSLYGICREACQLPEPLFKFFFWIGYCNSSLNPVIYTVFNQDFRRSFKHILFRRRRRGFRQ
T1 sequence (P19328 whole entry): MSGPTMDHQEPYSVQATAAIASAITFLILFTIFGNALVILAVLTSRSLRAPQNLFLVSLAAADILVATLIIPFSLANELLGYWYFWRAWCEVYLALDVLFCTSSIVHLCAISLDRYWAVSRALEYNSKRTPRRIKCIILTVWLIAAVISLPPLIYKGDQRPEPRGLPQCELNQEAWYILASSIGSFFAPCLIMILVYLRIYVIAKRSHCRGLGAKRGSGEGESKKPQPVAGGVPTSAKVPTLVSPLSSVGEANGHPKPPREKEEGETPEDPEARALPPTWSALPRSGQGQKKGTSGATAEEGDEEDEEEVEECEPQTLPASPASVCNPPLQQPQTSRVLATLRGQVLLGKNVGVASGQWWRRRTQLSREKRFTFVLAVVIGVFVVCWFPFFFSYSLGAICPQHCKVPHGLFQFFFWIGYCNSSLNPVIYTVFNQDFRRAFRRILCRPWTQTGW
T1 sequence (P22909 whole entry): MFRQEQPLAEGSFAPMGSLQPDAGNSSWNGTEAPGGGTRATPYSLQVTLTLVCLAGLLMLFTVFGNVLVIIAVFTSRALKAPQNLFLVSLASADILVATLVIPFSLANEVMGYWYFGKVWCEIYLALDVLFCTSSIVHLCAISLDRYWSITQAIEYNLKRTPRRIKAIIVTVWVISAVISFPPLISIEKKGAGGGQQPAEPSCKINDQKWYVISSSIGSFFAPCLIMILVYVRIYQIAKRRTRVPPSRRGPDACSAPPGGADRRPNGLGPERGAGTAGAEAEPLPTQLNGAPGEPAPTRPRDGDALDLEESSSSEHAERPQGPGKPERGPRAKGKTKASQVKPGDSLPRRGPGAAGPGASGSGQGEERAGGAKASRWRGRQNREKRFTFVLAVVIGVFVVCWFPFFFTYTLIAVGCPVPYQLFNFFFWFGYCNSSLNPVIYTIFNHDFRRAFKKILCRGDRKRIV
Nature of the test: Ability to displace [3H]rauwolscine from Alpha-2 adrenergic receptor in rat cortical membranes. Format: cell membranes.

The target of test [2] is Sodium-dependent serotonin transporter (Rattus norvegicus, UniProt P31652). Put plainly: Inhibition of uptake of [3H]5-HT in synaptosomes from rat cortex. Format: functional, subcellular, Brain.
Sequence of Sodium-dependent serotonin transporter (P31652 whole entry): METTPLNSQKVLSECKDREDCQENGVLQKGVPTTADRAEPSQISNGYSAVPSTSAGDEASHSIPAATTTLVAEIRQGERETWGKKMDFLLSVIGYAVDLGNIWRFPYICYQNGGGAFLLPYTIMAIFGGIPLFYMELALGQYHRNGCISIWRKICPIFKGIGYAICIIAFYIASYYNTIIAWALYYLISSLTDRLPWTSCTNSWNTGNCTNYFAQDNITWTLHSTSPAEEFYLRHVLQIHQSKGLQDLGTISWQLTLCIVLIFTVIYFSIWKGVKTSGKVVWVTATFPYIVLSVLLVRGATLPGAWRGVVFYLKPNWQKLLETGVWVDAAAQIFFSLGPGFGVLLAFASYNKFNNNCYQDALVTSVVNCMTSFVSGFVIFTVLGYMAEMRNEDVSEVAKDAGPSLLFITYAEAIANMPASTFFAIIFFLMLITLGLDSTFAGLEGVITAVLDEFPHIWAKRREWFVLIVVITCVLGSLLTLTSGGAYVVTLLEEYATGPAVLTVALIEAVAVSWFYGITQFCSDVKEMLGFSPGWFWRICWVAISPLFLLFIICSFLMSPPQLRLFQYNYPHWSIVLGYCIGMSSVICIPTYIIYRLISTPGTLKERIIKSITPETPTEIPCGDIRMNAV

By Ki is commonly meant a measure of affinity in units of concentration, obtained from inhibition or displacement. What is called IC50 is the midpoint of a concentration-inhibition curve. A lower IC50 goes with inhibition by little substance. In turn, `COc1ccc2c(c1)C(CN(C)CCc1ccc3c(c1)OCO3)CCC2` (configuration not stated) returned a Ki in test [1] of 57.5 nM. This compound returned a 50% inhibitory concentration (IC50) in test [2] of 1420 nM. In the same order, the values of `CN(CCc1ccc2c(c1)OCO2)C[C@@H]1CCCc2c1ccc1c2OCC1` are 5.57 nM and 26.7 nM. In the same order, the values of `COc1cccc2c1CCC[C@H]2CN(C)CCc1ccc2c(c1)CCS2(=O)=O` are 4.67 nM and 33.7 nM. `COc1cccc2c1C(CN(C)CCc1ccc3c(c1)OCO3)CCC2` (configuration not stated) returned a Ki in test [1] of 2.88 nM. In addition, in test [2], the IC50 came out at 1430 nM. In the same order, the values of `COc1cccc2c1CCC[C@H]2CN(C)CCc1ccc2occc2c1` are 2.78 nM and 17.6 nM. Take `COc1cccc2c1CCC[C@H]2CN(C)CCc1ccc2nc(O)oc2c1`: the Ki in test [1] amounted to 4.51 nM. The compound also registered an IC50 in test [2] of 19.4 nM. The like results for `COc1cccc2c1CCC[C@H]2CN(C)CCc1ccc2c(c1)C=CS2(=O)=O` were, in that order, 4.82 nM and 51 nM. The like results for `COc1cccc2c1CCC[C@H]2CN(C)CCc1ccc2c(c1)CCN2S(C)(=O)=O` were, in that order, 4.62 nM and 35 nM. In the same order, the values of `CCN(CCc1ccc2c(c1)OCO2)C[C@@H]1CCCc2c(OC)cccc21` are 5.73 nM and 158 nM. `CN(CCc1ccc2c(c1)OCO2)CC1CCCc2c(NS(C)(=O)=O)cccc21` (configuration not stated) had a Ki in test [1] of 19 nM. In test [2], the IC50 was 658 nM.

In turn, `COc1cccc2c1CCC[C@H]2CN(C)CCc1ccc2nc(C)sc2c1` came in with a Ki in test [1] of 2.12 nM. In addition, the midpoint of inhibition in test [2], the IC50, lay at 86.7 nM. `COc1cccc2c1CCC[C@H]2CN(C)CCc1ccc2c(c1)CCS2`: in test [1], the Ki came to 2.65 nM. For the same compound, the IC50 in test [2] was 24.3 nM. In the same order, the values of `COc1cccc2c1CCC[C@H]2CN(C)CCc1ccc2nc(C)oc2c1` are 9.27 nM and 42.8 nM. `COc1cccc2c1CCC[C@H]2CN(C)CCc1ccc2c(c1)CCC2` registered a Ki in test [1] of 8.99 nM. Besides, the IC50 in test [2] was 20.5 nM.

`COc1cccc2c1CCC[C@H]2CN(C)CCc1ccc2c(c1)CN(S(C)(=O)=O)C2` had a Ki in test [1] of 5.33 nM. This compound displayed an IC50 in test [2] of 5.81 nM. In turn, `COc1cccc2c1CCC[C@H]2CN(C)CCc1ccc2ncccc2c1` yielded a Ki in test [1] of 3.91 nM. This compound also had an IC50 in test [2] of 46.7 nM. `COc1cccc2c1CCC[C@H]2CN(C)CCc1ccc2ncoc2c1` came in with a Ki in test [1] of 1.22 nM. This compound returned an IC50 in test [2] of 5.25 nM.

As to `CN(CCc1ccc2c(c1)OCO2)CC1CCCc2ccccc21` (configuration not stated), the Ki in test [1] is given as 8.19 nM. Moreover, inhibition in test [2] was half-maximal at 1090 nM (IC50). In test [1], `COc1cccc2c1CCC[C@H]2CN(C)CCc1ccc2ccncc2c1` gave a Ki of 6.07 nM. Further, in test [2], the IC50 was 53.9 nM.

On to `COc1ccc2c(c1)CCCC2CN(C)CCc1ccc2c(c1)OCO2` (configuration not stated), for which the Ki in test [1] amounted to 23.5 nM. The same compound returned a concentration for half-maximal inhibition (IC50) in test [2] of 469 nM. With `COc1cccc2c1CCC[C@H]2CN(C)CCc1ccc2c(c1)COC2`, the Ki in test [1] worked out at 2.64 nM. For the same compound, in test [2], 229 nM corresponded to half-maximal inhibition (IC50). `COc1cccc2c1CCC[C@@H]2CN(C)CCc1ccc2c(c1)OCO2` showed a Ki in test [1] of 88.6 nM. This compound also came in with an IC50 in test [2] of 1310 nM. Consider `COc1cccc2c1CCC[C@H]2CN(CCc1ccc2c(c1)OCO2)CC1CC1`, for which the Ki in test [1] is on record as 54.3 nM. The compound `COc1cccc2c1CCC[C@H]2CN(C)CCc1ccc2c(c1)N(S(C)(=O)=O)CC2` registered a Ki in test [1] of 5.35 nM. The IC50 in test [2] stood at 38.9 nM. With `COc1cccc2c1CCC[C@H]2CN(C)CCc1ccc2oc(O)nc2c1`, the Ki in test [1] was 7.5 nM. In test [2], this compound came in with a 50% inhibitory concentration (IC50) of 68.3 nM.

Compound `COc1cccc2c1CCC[C@H]2CN(C)CCc1ccc2nc(N)sc2c1` showed a Ki in test [1] of 5.67 nM. Besides, the IC50 in test [2] was 9.47 nM. `COc1cccc2c1CCC[C@H]2CN(C)CCc1ccc2c(c1)NCC2` yielded a Ki in test [1] of 11.7 nM. Besides, half-maximal inhibition in test [2] (IC50) required 79.1 nM. On to `COc1cccc2c1CCC[C@H]2CN(C)CCc1ccc2c(c1)OCC2`, for which the Ki in test [1] is on record as 1.88 nM. The compound further displayed an IC50 in test [2] of 18.1 nM. In turn, `COc1cccc2c1CCC[C@H]2CN(CCc1ccc2c(c1)OCO2)C1CC1` came in with a Ki in test [1] of 266 nM.

`COc1cccc2c1CCC[C@H]2CN(C)CCc1ccc2ncsc2c1` yielded a Ki in test [1] of 2.73 nM. In addition, the IC50 in test [2] worked out at 8.94 nM. In the case of `COc1cccc2c1CCC[C@H]2CN(C)CCc1ccc2c(c1)CCN2`, the Ki in test [1] came to 3.42 nM. Moreover, the IC50 in test [2] was determined as 31.8 nM. In the same order, the values of `CN(CCc1ccc2c(c1)OCO2)CC1CCCc2c1ccc1c2OCO1` (configuration not stated) are 11 nM and 60.3 nM. Regarding `COc1ccc2c(c1OC)CCC[C@H]2CN(C)CCc1ccc2c(c1)OCO2`, in test [1], the Ki is listed as 15.5 nM. The compound also returned an IC50 in test [2] of 757 nM. For the compound `COc1cccc2c1CCC[C@H]2CN(C)CCc1ccc2sccc2c1`, the Ki in test [1] amounted to 17.9 nM. The compound further came in with an IC50 in test [2] of 52.8 nM. In the same order, the values of `COc1cccc2c1CCC[C@H]2CN(C)CCc1ccc2c(c1)CN(S(=O)(=O)C(F)(F)F)C2` are 142 nM and 59.8 nM.

In test [1], `COc1cccc2c1CCC[C@H]2CN(C)CCc1ccc2nc(Cl)sc2c1` had a Ki of 5.45 nM. In test [2], this compound registered an IC50 of 38.2 nM. In the same order, the values of `COc1cccc2c1CCC[C@H]2CN(C)CCc1ccc2c(c1)CNC2` are 5.99 nM and 11.6 nM. The compound `CN(CCc1ccc2c(c1)OCO2)C[C@@H]1CC[C@@H]2CCOc3cccc1c32` had a Ki in test [1] of 113 nM. In test [2], this compound returned an IC50 of 862 nM. `COc1cccc2c1CCC[C@H]2CN(C)CCc1ccc2c(c1)CCN2S(=O)(=O)C(F)(F)F`: the Ki in test [1] was found to be 158 nM. The IC50 in test [2] stood at 132 nM. `COc1cccc2c1CCC[C@H]2CN(C)CCc1ccc2c(c1)OCO2` showed a Ki in test [1] of 1.7 nM. In test [2], this compound returned an IC50 of 12.7 nM. Turning to `C#CCN(CCc1ccc2c(c1)OCO2)C[C@@H]1CCCc2c(OC)cccc21`, the Ki in test [1] was determined as 184 nM. In other words, the sub-micromolar range. The compound `COc1cccc2c1CCCC2CN(C)CCc1ccc2c(c1)OCO2` (configuration not stated) registered a Ki in test [1] of 6.71 nM. In test [2], this compound had an IC50 of 20.6 nM. In test [1], `CN(CCc1ccc2c(c1)OCO2)CC1CCCc2c(O)cccc21` (configuration not stated) had a Ki of 7.54 nM. This compound came in with a concentration for half-maximal inhibition (IC50) in test [2] of 1240 nM. In test [1], `CSc1cccc2c1CCCC2CN(C)CCc1ccc2c(c1)OCO2` (configuration not stated) registered a Ki of 21 nM. In test [2], it took 117 nM to reach half-maximal inhibition (IC50). In the same order, the values of `COc1cccc2c1CCC[C@H]2CN(C)CCc1ccc2c(c1)CC(=O)N2` are 4.91 nM and 22.2 nM. Turning to `COc1cccc2c1CCC[C@H]2CN(C)CCc1ccc2[nH]c(O)nc2c1`, the Ki in test [1] was 10.8 nM. This compound yielded an IC50 in test [2] of 16.3 nM.

In test [1], `CCOc1cccc2c1CCC[C@H]2CN(C)CCc1ccc2c(c1)OCO2` came in with a Ki of 1.86 nM. The compound further registered an IC50 in test [2] of 198 nM. In test [1], `COc1cccc2c1CCC[C@H]2CN(C)CCc1ccc2[nH]cnc2c1` showed a Ki of 5.21 nM. For the same compound, in test [2], half-maximal inhibition (IC50) was put at 11.3 nM.

As for `COc1cccc2c1CCC[C@H]2CN(C)CCc1ccc2c(c1)CCO2`, the inhibition constant (Ki) in test [1] came out at 1.76 nM. The compound further came in with an IC50 in test [2] of 14.6 nM. On to `COc1cccc2c1CCC[C@H]2CN(C)CCc1ccc2nccnc2c1`, for which, in test [1], the Ki was found to be 1.81 nM. The same compound showed an IC50 in test [2] of 44.4 nM.

As to `COc1cccc2c1CCC[C@H]2CN(C)CCc1ccc2ocnc2c1`, the Ki in test [1] was found to be 1.77 nM. This compound also gave an IC50 in test [2] of 16.7 nM. Regarding `COc1cccc2c1CCC[C@H]2CN(C)CCc1ccc2cccnc2c1`, the Ki in test [1] was found to be 6.79 nM. This compound displayed an IC50 in test [2] of 18.1 nM. As for `COc1cccc2c1CCC[C@H]2CNCCc1ccc2c(c1)OCO2`, the Ki in test [1] stood at 88.2 nM. The IC50 in test [2] turned out to be 414 nM. Regarding `COc1cccc2c1CCC[C@H]2CN(C)CCc1ccc2c(c1)CS(=O)(=O)C2`, the Ki in test [1] is reported as 1.78 nM. Moreover, inhibition in test [2] was half-maximal at 6.67 nM (IC50).

With `COc1cccc2c1CCC[C@H]2CN(C)CCc1ccc2c(c1)N(S(=O)(=O)C(F)(F)F)CC2`, the Ki in test [1] is given as 125 nM. For the same compound, in test [2], the IC50 came out at 183 nM.

Values taken from ChEMBL document CHEMBL1129981 (J Med Chem, 1997).
